This assay has as its system eIF2α S52A mutant cells. Nature of the assay: Polysome profiling and real-time PCR in eIF2α S52A mutant cells. As to conditions: i14G1-10 30 μM, i14G1-12 15 μM, 3 h; for translation of ISR genes in polysome fractions: S52A cells; for overall translation, polysome to monosome ratio (P/M): S52A mutant cells. Type of assay: cell-based, mouse. The text has this:
FIGS. 6A-G: i14G1-10 and i14G1-12 uncover roles of the eIF4G1-eIF1 complex in ISR, cell cycle and cell survival. […] (6B). Ribo-seq and TI-seq read tracks of representative stress response-associated mRNAs (i.e., ATF3, and GADD45A) in DMSO (black), i14G1-10 (red), and i14G1-12 (green) samples. The red triangle represents 5′UTR TIS codons and the green denotes annotated TIS. Black arrows show the translation direction. (6C) Mouse embryonic fibroblasts (MEFs) control cells and eIF2αS52A mutant MEF cells were treated with Thapsigargin (1 μM) for 1h. Cells were lysed, and cell lysate was analyzed using western blot with the indicated antibodies. (6D) Control cells and eIF2αS52A mutant MEF cells were treated with DMSO, i14G1-10 (30 μM) or i14G1-12 (15 μM) for 3 h, cells were lysed in polysome buffer and loaded onto sucrose density gradient for polysome separation followed by fractionation. The graph presents the polysomes vs monosomes ratio in control MEFs (purple) and eIF2αS52A mutant cells (blue). (6E) Fractions were pooled (from 6D) according to the polysome profile as free (grey), light (blue), and heavy (yellow) polysomal fractions. cDNA was prepared from each fraction pool and real-time PCR was performed for the indicated stress response genes. The data are shown as mean±SEM, n=3. The asterisks denote statistically significant differences compared to DMSO, according to Student's t-tests (one-tailed, paired), *p<0.05; **p<0.01. (6F-G). HEK293T cells were transfected with HA-eIF1 or HA-eIF4E, 48 h later, treated with (6F) 1 μM Thapsigargin or (6G) 250 nM Torin-1. Cell lysates were subjected to immunoprecipitation with HA-agarose beads to precipitate HA-eIF1 and HA-eIF4E to check for co-IP of eIF4G1 using western blot (left). The graphs on the right represent the relative chemiluminescence signal intensity of the co-immunoprecipitation of eIF4G1 with HA-eIF1 or HA-eIF4E of 4 independent experiments. The asterisks denote statistically significant difference compared to DMSO *p<0.05; **p<0.01.
FIGS. 7A-E: (7A) Ribo-seq and TI-seq read tracks of representative stress response-associated mRNAs (DDIT3 and GADD34) in DMSO (black), i14G1-10 (red), and i14G1-12 (green) samples. The red triangle represents 5′UTR TIS codons and the green denotes annotated TIS. Black arrows show the translation direction. […] The graphs in the lower panel are the quantification of ATF4's uORF1′, uORF1, uORF2, and main-ORF reads of the Ribo-seq data. The asterisks denote statistically significant difference compared to DMSO, according to Student's t-tests (one-tailed, paired). **p<0.01, ***p<0.001, ****p<0.0001. (7C) HEK293T cells were treated with DMSO, i14G1-10, and i14G1-12 for 3 h, lysed and subjected to sucrose gradient sedimentation and fractionation. […]
In general terms: Real-time PCR tracks product formation cycle by cycle.

In the case of `O=C(/C=C/Sc1ccc(C(F)(F)F)cn1)c1ccccc1` [i14G1-10], the “translation of ISR genes in polysome fractions” value was “upregulated” and the “overall translation, polysome to monosome ratio (P/M)” value is listed as “not significantly”.

As for `Cn1ccnc1S/C(=C/C=C(C#N)C#N)c1ccc(Cl)cc1` [i14G1-12], the “translation of ISR genes in polysome fractions” value was “upregulated” and the “overall translation, polysome to monosome ratio (P/M)” value is “further inhibited”.

For the origin of these results see US20250090510A1, “eIF4G1-eIF1 INHIBITORS AND USE THEREOF” (YEDA RESEARCH AND DEVELOPMENT CO. LTD., priority 2022, published 2025).
